According to article PMC9386018, “A lymphatic-absorbed multi-targeted kinase inhibitor for myelofibrosis therapy” (Nature Communications, 2022):
Several values for one entry are separate records, joined by “and”; a condition that tells them apart may be missing. Equal values may be shown once.

Tests used:
[1] = target: T1, Target kinase isoforms (PI3K, mTOR, RAF, MEK) (Homo sapiens, UniProt O00329); assay: Target kinase isoforms 10-point IC50 determination (Supplementary Fig. 7); type: biochemical; settings: PI3K delta
T1 sequence (O00329 1-1044): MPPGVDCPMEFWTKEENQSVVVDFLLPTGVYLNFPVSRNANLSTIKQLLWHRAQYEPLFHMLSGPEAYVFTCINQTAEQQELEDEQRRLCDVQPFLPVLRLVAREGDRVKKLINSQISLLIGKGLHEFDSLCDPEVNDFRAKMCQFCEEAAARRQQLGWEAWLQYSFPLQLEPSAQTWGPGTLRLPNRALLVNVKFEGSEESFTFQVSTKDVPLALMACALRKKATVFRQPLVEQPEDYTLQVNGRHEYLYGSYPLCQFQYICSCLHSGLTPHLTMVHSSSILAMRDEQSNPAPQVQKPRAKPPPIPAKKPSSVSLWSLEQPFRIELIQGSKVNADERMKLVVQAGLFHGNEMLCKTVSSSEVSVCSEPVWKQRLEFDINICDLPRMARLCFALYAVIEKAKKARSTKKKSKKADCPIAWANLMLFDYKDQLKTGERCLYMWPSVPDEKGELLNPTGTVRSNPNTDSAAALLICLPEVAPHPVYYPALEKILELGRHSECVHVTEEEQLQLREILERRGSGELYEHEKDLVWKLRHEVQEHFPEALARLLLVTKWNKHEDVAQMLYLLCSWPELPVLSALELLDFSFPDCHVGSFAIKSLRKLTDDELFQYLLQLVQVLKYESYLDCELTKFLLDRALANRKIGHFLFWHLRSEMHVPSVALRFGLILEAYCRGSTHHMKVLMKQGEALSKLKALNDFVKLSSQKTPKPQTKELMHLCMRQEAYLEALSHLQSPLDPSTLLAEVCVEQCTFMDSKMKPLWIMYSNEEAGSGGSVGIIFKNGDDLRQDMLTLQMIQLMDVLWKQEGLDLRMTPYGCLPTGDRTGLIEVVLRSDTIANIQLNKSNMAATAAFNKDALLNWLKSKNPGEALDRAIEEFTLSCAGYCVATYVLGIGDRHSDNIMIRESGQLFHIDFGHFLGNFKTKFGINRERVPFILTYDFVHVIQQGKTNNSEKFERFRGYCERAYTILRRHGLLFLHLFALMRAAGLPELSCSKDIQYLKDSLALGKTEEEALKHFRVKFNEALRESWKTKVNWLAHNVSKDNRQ
From the text: (§1) The average percent kinase inhibition from replicate data was ranked low to high, converted to a compatible identifier format, then input into Coral Human Kinome Visualization software for presentation analysis. […] Scaling of evolutionary distance for PI kinases is only relative and is based on literature analysis[62],[63]. Average percent kinome inhibition values from replicate data are supplied in Source Data file. […] Corrected data was normalized to vehicle treated control values, and dose response percent kinase activity was analyzed by non-linear regression for determination of IC50 values.

[2] = target: Target kinase isoforms (PI3K, mTOR, RAF, MEK) (Homo sapiens, UniProt P42345); assay: as above; type: biochemical; settings: mTOR
From the text: as §1

SET-2 cells = assay: SET-2 proliferation assay (CellTiter-Fluor); type: cell-based, human; settings: 72 h, replicates (Fig. 2d)
Description: Viable cells were counted by CellTiter-Fluor Assay (Promega) according to manufacturer’s protocol, and all fluorescence values were corrected by a no-cell control. […] Caspase activity was measured by Caspase-Glo 3/7 assay (Promega) according to the manufacturer’s protocol, and all luminescence values were corrected by a no-cell control. Dose response proliferation and Caspase activation data was normalized to vehicle treated control cells and analyzed by non-linear regression for determination of IC50 values. Data was generated from n = 3 independent experiments performed in replicate.

[3] = Pharmacokinetic analysis of plasma after intravenous and oral dosing; settings: plasma, mice, analyte = label, individual animals
Description: Samples were centrifuged at 15,000 rpm for 10 min, then blood plasma was collected from the upper layer and frozen at −80 °C until analysis. […] Sample processing, chromatographic separation, MS, and MS/MS parameters used for analysis were determined by the core. […] Standard curves for peak area ratio of compound to internal standard (Astd/AIstd) vs. compound concentration were used to determine sample analyte concentrations through linear regression with a weighting average of 1/X^2. […] All pharmacokinetic parameters were estimated using non-compartmental analysis with Phoenix/WINONLIN, and provided by the core along with calculated sample analyte concentrations. Data was generated from n ≥ 3 individual animals sampled per time point per compound for each method of dosing.

SMILES: O=S(=O)(Nc1cc(-c2ccc3ncc(N4CCNCC4)nc3c2)cnc1Cl)c1ccc(F)cc1 [LP-527, N-(2-chloro-5-(3-(piperazin-1-yl)quinoxalin-6-yl)pyridin-3-yl)-4-fluorobenzenesulfonamide]
- Kinase Activity (%) PI3K delta ([1]; concentration 0.0187 nM, 18.7 pM): 106% and 96% and 89% and 81%
- Kinase Activity (%) PI3K delta ([1]; concentration 0.0562 nM, 56.2 pM): 100% and 95% and 78% and 86% and 79% and 91%
- Kinase Activity (%) PI3K delta ([1]; concentration 41.2 nM, 0.0412 µM): 2% and 3%
- Kinase Activity (%) PI3K delta ([1]; concentration 123 nM, 0.123 µM): 1% and 3%
- Kinase Activity (%) PI3K delta ([1]; concentration 370 nM, […]): 2%
- activity at 1.11 µM ([1]; concentration 1110 nM): 0%
- Kinase Activity (%) PI3K delta ([1]; concentration 3330 nM, 3.33 µM): 2%
- Kinase Activity (%) PI3K delta ([1]; concentration 10000 nM, 10 µM): 9%
- activity at 0.000495 µM ([2]; concentration 0.495 nM): 96%
- Kinase Activity (%) mTOR ([2]; concentration 0.495 nM, 0.000495 µM): 89% and 90% and 92%
- activity at 0.00152 µM ([2]; concentration 1.52 nM): 78%
- Kinase Activity (%) mTOR ([2]; concentration 1.52 nM, 0.00152 µM): 80% and 77% and 74% and 83% and 76%
- activity at 0.00457 µM ([2]; concentration 4.57 nM): 63%
- Kinase Activity (%) mTOR ([2]; concentration 4.57 nM, 0.00457 µM): 61% and 56% and 52% and 57% and 58%
- Kinase Activity (%) mTOR ([2]; concentration 123 nM, 0.123 µM): 7% and 3% and 2% and 5% and 0%
- Kinase Activity (%) mTOR ([2]; concentration 1110 nM, 1.11 µM): 5% and 3% and 2% and -4% and -2% and -1%
- Kinase Activity (%) mTOR ([2]; concentration 3330 nM, 3.33 µM): 3% and 2% and 1% and -3% and -2% and -4%
- Kinase Activity (%) mTOR ([2]; concentration 10000 nM, 10 µM): 6% and 3% and 0% and -1% and 1% and -2%
- Growth (%) (SET-2 cells; 0.0390625 µM): 97.7197% and 103.197% and 95.0232% and 96.0199% and 87.1186% and 84.2432%
- Growth (%) (SET-2 cells; 0.078125 µM): 102.201% and 95.8185% and 100.256% and 94.6633% and 89.3668% and 84.7402%
- Growth (%) (SET-2 cells; 0.15625 µM): 60.7367% and 65.6255% and 73.87% and 70.9074% and 80.6697% and 85.462%
- Growth (%) (SET-2 cells; 0.3125 µM): 89.6622% and 88.0779% and 85.9694% and 85.0557% and 87.935% and 90.4791%
- Growth (%) (SET-2 cells; 0.625 µM): 81.0162% and 91.3823% and 77.1925% and 82.0932% and 77.6879% and 82.066%
- Growth (%) (SET-2 cells; 5 µM): 12.7992% and 7.412% and 15.3388% and 14.5913% and 45.9761% and 39.8941%
- Growth (%) (SET-2 cells; 10 µM): -3.542% and -5.534% and -4.236% and 0.443% and 15.3648% and 16.0393%
- Growth (%) (SET-2 cells; 20 µM): -8.838% and -10.5585% and -11.075% and -10.5212% and 6.443% and 9.661%
- concentration at 0.167 h ([3]; female, CD-1, mouse, iv, 15 mg kg^−1, Concentration (ng/mL), single i.v. LP-182 15 mg kg^−1, 0.167 h): 15.5 ng/mL
- concentration at 0.5 h ([3]; female, CD-1, mouse, iv, 15 mg kg^−1, Concentration (ng/mL), single i.v. LP-182 15 mg kg^−1, 0.5 h): 7.17 ng/mL
- concentration at 1 h ([3]; female, CD-1, mouse, iv, 15 mg kg^−1, Concentration (ng/mL), single i.v. LP-182 15 mg kg^−1, 1 h): 6.53 ng/mL
- concentration at 0.5 h ([3]; female, CD-1, mouse, po, 400 mg kg^−1, Concentration (ng/mL), single p.o. LP-182 400 mg kg^−1, 0.5 h): 9.62 ng/mL
- concentration at 16 h ([3]; female, CD-1, mouse, po, 400 mg kg^−1, Concentration (ng/mL), single p.o. LP-182 400 mg kg^−1, 16 h): 19 ng/mL
- Concentration ([3]; single i.v. LP-182 15 mg kg^−1, 0.167 h): 14.8 ng/mL and 14.5 ng/mL
- Concentration ([3]; single i.v. LP-182 15 mg kg^−1, 0.5 h): 7.97 ng/mL and 7.89 ng/mL
- Concentration ([3]; single i.v. LP-182 15 mg kg^−1, 1 h): 5.65 ng/mL and 6.42 ng/mL
- Concentration ([3]; single i.v. LP-182 15 mg kg^−1, 2 h): 2.97 ng/mL and 2.53 ng/mL and 1.08 ng/mL
- Concentration ([3]; single p.o. LP-182 400 mg kg^−1, 0.167 h): 7.25 ng/mL and 15.1 ng/mL and 1.83 ng/mL
- Concentration ([3]; single p.o. LP-182 400 mg kg^−1, 0.5 h): 13.1 ng/mL and 15 ng/mL
- Concentration ([3]; single p.o. LP-182 400 mg kg^−1, 1 h): 29.3 ng/mL and 56.7 ng/mL and 12.7 ng/mL
- Concentration ([3]; single p.o. LP-182 400 mg kg^−1, 2 h): 12.6 ng/mL and 14.5 ng/mL and 5.44 ng/mL
- Concentration ([3]; single p.o. LP-182 400 mg kg^−1, 4 h): 23.5 ng/mL and 11.5 ng/mL and 14 ng/mL
- Concentration ([3]; single p.o. LP-182 400 mg kg^−1, 7 h): 27.3 ng/mL and 11.6 ng/mL and 31.5 ng/mL
- Concentration ([3]; single p.o. LP-182 400 mg kg^−1, 16 h): 12.8 ng/mL and 13.1 ng/mL
- Concentration ([3]; single p.o. LP-182 400 mg kg^−1, 24 h): 24.5 ng/mL and 9.81 ng/mL and 21.4 ng/mL
